Among the data in ChEMBL document CHEMBL5335843, “Application of tobramycin benzyl ether as an antibiotic adjuvant capable of sensitizing multidrug-resistant Gram-negative bacteria to rifampicin” (2024) are MIC values, retold here.

Common to all, as to type: functional
The test system of assay [1] is Acinetobacter baumannii. Description: Antibacterial activity against multi-drug resistant Acinetobacter baumannii clinical isolate LAC-4 assessed as inhibition of bacterial growth incubated for 18 hrs by two fold broth microdilution assay. On the technique in general: In broth dilution the organism is exposed to a series of concentrations in liquid medium.
Assay [2] has as its system Pseudomonas aeruginosa. Description: Antibacterial activity against multi-drug resistant Pseudomonas aeruginosa clinical isolate 101243 assessed as inhibition of bacterial growth incubated for 18 hrs by two fold broth microdilution assay.
The test system of assay [3] is Acinetobacter baumannii. Briefly: Antibacterial activity against multi-drug resistant Acinetobacter baumannii clinical isolate AB031 assessed as inhibition of bacterial growth incubated for 18 hrs by two fold broth microdilution assay.
Assay [4] has as its system Escherichia coli. Briefly: Antibacterial activity against multi-drug resistant Escherichia coli clinical isolate 94393 assessed as inhibition of bacterial growth incubated for 18 hrs by two fold broth microdilution assay.
The subject of assay [5] is Pseudomonas aeruginosa. Briefly: Antibacterial activity against multi-drug resistant Pseudomonas aeruginosa clinical isolate PA259 assessed as inhibition of bacterial growth incubated for 18 hrs by two fold broth microdilution assay.
In assay [6] the test system is Enterococcus faecium. Description: Antibacterial activity against Enterococcus faecium 128149 assessed as inhibition of bacterial growth incubated for 18 hrs by two fold broth microdilution assay.
In assay [7] the test system is Escherichia coli. Briefly: Antibacterial activity against multi-drug resistant Escherichia coli clinical isolate 107115 assessed as inhibition of bacterial growth incubated for 18 hrs by two fold broth microdilution assay.
Assay [8] has as its system Pseudomonas aeruginosa. Description: Antibacterial activity against multi-drug resistant Pseudomonas aeruginosa clinical isolate PA262 assessed as inhibition of bacterial growth incubated for 18 hrs by two fold broth microdilution assay.
The test system of assay [9] is Enterococcus faecium. Description: Antibacterial activity against Enterococcus faecium 114278 assessed as inhibition of bacterial growth incubated for 18 hrs by two fold broth microdilution assay.
For assay [10], the system named is Acinetobacter baumannii. Description: Antibacterial activity against multi-drug resistant Acinetobacter baumannii clinical isolate AB027 assessed as inhibition of bacterial growth incubated for 18 hrs by two fold broth microdilution assay.
The test system of a further assay is Staphylococcus aureus. Description: Antibacterial activity against methicilin-resistant Staphylococcus aureus assessed as inhibition of bacterial growth incubated for 18 hrs by two fold broth microdilution assay.
The test system of assay [11] is Acinetobacter baumannii. Briefly: Antibacterial activity against multi-drug resistant Acinetobacter baumannii clinical isolate 92247 assessed as inhibition of bacterial growth incubated for 18 hrs by two fold broth microdilution assay.
The test system of assay [12] is Pseudomonas aeruginosa. Briefly: Antibacterial activity against multi-drug resistant Pseudomonas aeruginosa clinical isolate 114228 assessed as inhibition of bacterial growth incubated for 18 hrs by two fold broth microdilution assay.
The test system of assay [13] is Acinetobacter baumannii. Briefly: Antibacterial activity against multi-drug resistant Acinetobacter baumannii clinical isolate 110193 assessed as inhibition of bacterial growth incubated for 18 hrs by two fold broth microdilution assay.
Assay [14] deals with Pseudomonas aeruginosa. Description: Antibacterial activity against multi-drug resistant Pseudomonas aeruginosa clinical isolate PA264 assessed as inhibition of bacterial growth incubated for 18 hrs by two fold broth microdilution assay.
The test system of assay [15] is Escherichia coli. Briefly: Antibacterial activity against multi-drug resistant Escherichia coli clinical isolate 94474 assessed as inhibition of bacterial growth incubated for 18 hrs by two fold broth microdilution assay.

Values after ≈ are worked out from the molar mass of the structure shown.

As usually defined, the MIC is the lowest concentration found to suppress growth.

`CO[C@H]1/C=C/O[C@@]2(C)Oc3c(C)c(O)c4c(O)c(c(/C=N/N5CCN(C)CC5)c(O)c4c3C2=O)NC(=O)/C(C)=C\C=C\[C@H](C)[C@H](O)[C@@H](C)[C@@H](O)[C@@H](C)[C@H](OC(C)=O)[C@@H]1C` [RIFAMPIN]: the MIC with Acinetobacter baumannii [1] came out at 2 µg/mL (≈ 2.43 µM); in the assay on Pseudomonas aeruginosa [2], 4 µg/mL (≈ 4.86 µM); in the assay on Acinetobacter baumannii [3], 2 µg/mL (≈ 2.43 µM); with Escherichia coli [4], 32 µg/mL (≈ 38.9 µM); in the assay with Pseudomonas aeruginosa [5] it was 16 µg/mL (≈ 19.4 µM); in the assay with Enterococcus faecium [6] it was 8 µg/mL (≈ 9.72 µM). Further, the MIC in the assay on Escherichia coli [7] is 128 µg/mL (≈ 156 µM); in the assay on Pseudomonas aeruginosa [8], 512 µg/mL (≈ 622 µM); with Enterococcus faecium [9], 4 µg/mL (≈ 4.86 µM); in the assay on Acinetobacter baumannii [10], 8 µg/mL (≈ 9.72 µM); with Staphylococcus aureus, 256 µg/mL (≈ 311 µM); in the assay with Acinetobacter baumannii [11], 4 µg/mL (≈ 4.86 µM). Moreover, the MIC in the assay on Pseudomonas aeruginosa [12] was found to be 16 µg/mL (≈ 19.4 µM); in the assay with Acinetobacter baumannii [13], 4 µg/mL (≈ 4.86 µM); with Pseudomonas aeruginosa [14] it was 16 µg/mL (≈ 19.4 µM); in the assay on Escherichia coli [15] it was 8 µg/mL (≈ 9.72 µM).
